Experimental data published in PubChem BioAssay AID192 (DTP/NCI, 2004).
“And” between values parts separate entries of the source, which are not always exact repeats. Identical values can stand only once. Toxic doses and inconclusive results are not listed.

Test system: BDF1 mice, B16 melanoma ip, median survival T/C
Experiment: NCI In Vivo Anticancer Drug Screen. Data for tumor model B16 Melanoma (intraperitoneal) in B6D2F1 (BDF1) mice
Conditions: endpoint: median survival time, higher = longer survival
How it was run: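 Transplantable tumor model; survival or tumor size measured; reported as T/C, treated over vehicle control.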

[1] = dose: 100.0 mg/kg/injection, schedule: Q01DX009 (ip), vehicle: Klucel (hydroxypropylcellulose) (HPC)
[2] = dose: 200.0 mg/kg/injection, schedule: Q01DX009 (ip), vehicle: Klucel (hydroxypropylcellulose) (HPC)
[3] = dose: 12.5 mg/kg/injection, schedule: Q01DX009 (ip), vehicle: saline with Tween-80
[4] = dose: 25.0 mg/kg/injection, schedule: Q01DX009 (ip), vehicle: saline with Tween-80
[5] = dose: 6.25 mg/kg/injection, schedule: Q01DX009 (ip), vehicle: saline with Tween-80

CC(=O)O[C@H]1C(=O)[C@@]2(C)[C@H]([C@H](OC(=O)c3ccccc3)[C@]3(O)C[C@H](OC(=O)[C@H](O)[C@@H](NC(=O)c4ccccc4)c4ccccc4)C(C)=C1C3(C)C)[C@]1(OC(C)=O)CO[C@@H]1C[C@@H]2O
T/C (dose: 0.66 mg/kg/injection, schedule: Q01DX005 (iv), vehicle: other): 100 % of control
T/C (dose: 0.66 mg/kg/injection, schedule: Q08HX018 (ip), vehicle: Klucel (hydroxypropylcellulose) (HPC)): 160 % of control
T/C (dose: 0.66 mg/kg/injection, schedule: Q08HX018 (ip), vehicle: other): 110 % of control
T/C (dose: 0.98 mg/kg/injection, schedule: Q08HX018 (ip), vehicle: Klucel (hydroxypropylcellulose) (HPC)): 183 % of control
T/C (dose: 1.25 mg/kg/injection, schedule: Q01DX009 (ip), vehicle: Klucel (hydroxypropylcellulose) (HPC)): 153 % of control and 181 % of control
T/C (dose: 1.25 mg/kg/injection, schedule: Q01DX009 (oral), vehicle: Klucel (hydroxypropylcellulose) (HPC)): 91 % of control
T/C (dose: 1.32 mg/kg/injection, schedule: Q01DX009 (ip), vehicle: Klucel (hydroxypropylcellulose) (HPC)): 164 % of control
T/C (dose: 1.48 mg/kg/injection, schedule: Q01DX005 (iv), vehicle: other): 105 % of control
T/C (dose: 1.48 mg/kg/injection, schedule: Q08HX018 (ip), vehicle: Klucel (hydroxypropylcellulose) (HPC)): 207 % of control
T/C (dose: 1.48 mg/kg/injection, schedule: Q08HX018 (ip), vehicle: other): 174 % of control
T/C (dose: 1.98 mg/kg/injection, schedule: Q01DX009 (ip), vehicle: Klucel (hydroxypropylcellulose) (HPC)): 183 % of control and 200 % of control
T/C (dose: 2.22 mg/kg/injection, schedule: Q08HX018 (ip), vehicle: Klucel (hydroxypropylcellulose) (HPC)): 187 % of control
T/C (dose: 2.22 mg/kg/injection, schedule: Q08HX018 (ip), vehicle: other): 193 % of control
T/C (dose: 2.5 mg/kg/injection, schedule: Q01DX009 (ip), vehicle: other): 106 % of control
T/C (dose: 2.5 mg/kg/injection, schedule: Q01DX009 (oral), vehicle: Klucel (hydroxypropylcellulose) (HPC)): 116 % of control
T/C (dose: 2.96 mg/kg/injection, schedule: Q01DX009 (ip), vehicle: Klucel (hydroxypropylcellulose) (HPC)): 206 % of control and 217 % of control
T/C (dose: 3.33 mg/kg/injection, schedule: Q01DX005 (iv), vehicle: other): 95 % of control
T/C (dose: 3.33 mg/kg/injection, schedule: Q08HX018 (ip), vehicle: Klucel (hydroxypropylcellulose) (HPC)): 198 % of control
T/C (dose: 4.44 mg/kg/injection, schedule: Q01DX009 (ip), vehicle: Klucel (hydroxypropylcellulose) (HPC)): 194 % of control and 231 % of control
T/C (dose: 5.0 mg/kg/injection, schedule: Q08HX018 (ip), vehicle: Klucel (hydroxypropylcellulose) (HPC)): 240 % of control
T/C (dose: 5.0 mg/kg/injection, schedule: Q08HX018 (ip), vehicle: other): 150 % of control and 208 % of control
T/C (dose: 7.5 mg/kg/injection, schedule: Q01DX005 (iv), vehicle: other): 100 % of control
T/C (dose: 7.5 mg/kg/injection, schedule: Q08HX018 (ip), vehicle: Klucel (hydroxypropylcellulose) (HPC)): 122 % of control
T/C (dose: 11.2 mg/kg/injection, schedule: Q01DX005 (iv), vehicle: other): 108 % of control
T/C (dose: 20.0 mg/kg/injection, schedule: Q01DX009 (oral), vehicle: Klucel (hydroxypropylcellulose) (HPC)): 108 % of control
T/C (dose: 40.0 mg/kg/injection, schedule: Q01DX009 (oral), vehicle: Klucel (hydroxypropylcellulose) (HPC)): 106 % of control

CC(=O)CC(=O)Nc1cc(Cl)ccc1C
T/C (dose: 50.0 mg/kg/injection, schedule: Q01DX009 (ip), vehicle: Klucel (hydroxypropylcellulose) (HPC)): 105 % of control
T/C [1]: 92 % of control
T/C [2]: 94 % of control

COC1=C(OC)C(=O)C(SC/C=C(\C)CCCC(C)CCCC(C)CCCC(C)C)=CC1=O (centres undefined)
T/C [3]: 108 % of control
T/C [4]: 105 % of control
T/C (dose: 50.0 mg/kg/injection, schedule: Q01DX009 (ip), vehicle: saline with Tween-80): 110 % of control
T/C (dose: 100.0 mg/kg/injection, schedule: Q01DX009 (ip), vehicle: saline with Tween-80): 115 % of control

COc1ccc(NC(=O)c2cccc(C(=O)Nc3ccc(OC)cc3)c2)cc1
T/C [1]: 102 % of control
T/C [2]: 108 % of control
T/C (dose: 400.0 mg/kg/injection, schedule: Q01DX009 (ip), vehicle: Klucel (hydroxypropylcellulose) (HPC)): 102 % of control

O=C(O)c1[nH]c(=O)[nH]c(=O)c1N1CCCCC1
T/C (dose: 25.0 mg/kg/injection, schedule: Q04DX003 (ip), vehicle: Klucel (hydroxypropylcellulose) (HPC)): 110 % of control
T/C (dose: 50.0 mg/kg/injection, schedule: Q04DX003 (ip), vehicle: Klucel (hydroxypropylcellulose) (HPC)): 86 % of control

Nc1nc(N)c2c(ccc3c2ccn3Cc2cccc([N+](=O)[O-])c2)n1
T/C (dose: 1.56 mg/kg/injection, schedule: Q01DX009 (ip), vehicle: saline with Tween-80): 90 % of control
T/C (dose: 3.12 mg/kg/injection, schedule: Q01DX009 (ip), vehicle: saline with Tween-80): 100 % of control
T/C [5]: 119 % of control

COC1CC(C)C(OC)C2=CC(=O)C=C(NC(=O)/C(C)=C/C=C\C(C)C(OC(N)=O)/C(C)=C\C(C)C1OC)C2=O (centres undefined)
T/C (dose: 5.0 mg/kg/injection, schedule: Q01DX009 (ip), vehicle: saline + alcohol): 152 % of control
T/C (dose: 10.0 mg/kg/injection, schedule: Q01DX009 (ip), vehicle: saline + alcohol): 172 % of control

O=C(Nc1cc(Cl)ccc1Cl)c1ccc(Cl)cc1Cl
T/C [5]: 97 % of control
T/C (dose: 6.25 mg/kg/injection, schedule: Q04DX003 (ip), vehicle: saline with Tween-80): 92 % of control
T/C [3]: 93 % of control
T/C (dose: 12.5 mg/kg/injection, schedule: Q04DX003 (ip), vehicle: saline with Tween-80): 96 % of control
T/C [4]: 100 % of control
T/C (dose: 25.0 mg/kg/injection, schedule: Q04DX003 (ip), vehicle: saline with Tween-80): 88 % of control
